The values that follow come from patent US8202881B2, “JAK2 inhibitors and their use for the treatment of myeloproliferative diseases and cancer” (Bristol-Meyers Squibb Company, priority 2009, dated 2012).

One assay has as its target JAK2 (Homo sapiens, UniProt O60674). The assay is described as follows: JAK2 Tyrosine Kinase Assay. The format is biochemical. Conditions: for IC50: ATP 30 μM, JAK2 1 nM, 60 min room temperature. As to the method: JAK2 Tyrosine Kinase Assay
The assays were performed in V-bottom 384-well plates. The final assay volume was 30 μL prepared from 15 μL additions of enzyme and substrates (fluoresceinated peptide and ATP) and test compounds in assay buffer (100 mM HEPES pH 7.4, 10 mM MgCl2, 25 mM Beta-Glycerolphosphate, 0.015% Brij35 and 4 mM DTT). The reaction was initiated by the combination of JAK2 with substrates and test compounds. The reaction was incubated at room temperature for 60 min. and terminated by adding 45 μL of 35 mM EDTA to each sample. The reaction mixture was analyzed on the Caliper LabChip 3000 by electrophoretic separation of the fluorescent substrate and phosphorylated product. Inhibition data were calculated by comparison to no enzyme control reactions for 100% inhibition and vehicle-only reactions for 0% inhibition. The final concentration of reagents in the assays is ATP, 30 μM; JAK2 fluorescent peptide, 1.5 μM; JAK2, 1 nM; and DMSO, 1.6%. Dose response curves were generated to determine the concentration required inhibiting 50% of kinase activity (IC50). Compounds were dissolved at 10 mM in dimethylsulfoxide (DMSO) and evaluated at eleven concentrations, each in duplicate. IC50 values were derived by non-linear regression analysis

The test system of another assay is SET-2 cells. The assay is described as follows: Cell Proliferation Inhibition Assay (3H-thymidine incorporation). The format is cell-based. Conditions: Homo sapiens, 72 h with compound. As for the experimental part: Cell Proliferation Inhibition Assay
Compounds were evaluated for their ability to inhibit cell proliferation, using an assay that measures thymidine incorporation in the DNA of the dividing cell, which is directly correlated with cell numbers. SET-2 cells were plated at 10000 cells/well in 96-well plates and were cultured for 24 h in RPMI-1640 supplemented with 20% fetal bovine serum, before test compounds were added. Compounds were diluted in culture medium such that the final concentration of dimethyl sulfoxide never exceeded 0.1%. Following the addition of compounds, the cells were cultured for an additional 72 h before cell proliferation was determined by measuring DNA synthesis with 3H-thymidine incorporation.
(Dividing cells build labelled thymidine or BrdU into new DNA.)

What is called IC50 is the concentration needed to halve the response being measured.

JAK2, sequence (O60674 whole entry): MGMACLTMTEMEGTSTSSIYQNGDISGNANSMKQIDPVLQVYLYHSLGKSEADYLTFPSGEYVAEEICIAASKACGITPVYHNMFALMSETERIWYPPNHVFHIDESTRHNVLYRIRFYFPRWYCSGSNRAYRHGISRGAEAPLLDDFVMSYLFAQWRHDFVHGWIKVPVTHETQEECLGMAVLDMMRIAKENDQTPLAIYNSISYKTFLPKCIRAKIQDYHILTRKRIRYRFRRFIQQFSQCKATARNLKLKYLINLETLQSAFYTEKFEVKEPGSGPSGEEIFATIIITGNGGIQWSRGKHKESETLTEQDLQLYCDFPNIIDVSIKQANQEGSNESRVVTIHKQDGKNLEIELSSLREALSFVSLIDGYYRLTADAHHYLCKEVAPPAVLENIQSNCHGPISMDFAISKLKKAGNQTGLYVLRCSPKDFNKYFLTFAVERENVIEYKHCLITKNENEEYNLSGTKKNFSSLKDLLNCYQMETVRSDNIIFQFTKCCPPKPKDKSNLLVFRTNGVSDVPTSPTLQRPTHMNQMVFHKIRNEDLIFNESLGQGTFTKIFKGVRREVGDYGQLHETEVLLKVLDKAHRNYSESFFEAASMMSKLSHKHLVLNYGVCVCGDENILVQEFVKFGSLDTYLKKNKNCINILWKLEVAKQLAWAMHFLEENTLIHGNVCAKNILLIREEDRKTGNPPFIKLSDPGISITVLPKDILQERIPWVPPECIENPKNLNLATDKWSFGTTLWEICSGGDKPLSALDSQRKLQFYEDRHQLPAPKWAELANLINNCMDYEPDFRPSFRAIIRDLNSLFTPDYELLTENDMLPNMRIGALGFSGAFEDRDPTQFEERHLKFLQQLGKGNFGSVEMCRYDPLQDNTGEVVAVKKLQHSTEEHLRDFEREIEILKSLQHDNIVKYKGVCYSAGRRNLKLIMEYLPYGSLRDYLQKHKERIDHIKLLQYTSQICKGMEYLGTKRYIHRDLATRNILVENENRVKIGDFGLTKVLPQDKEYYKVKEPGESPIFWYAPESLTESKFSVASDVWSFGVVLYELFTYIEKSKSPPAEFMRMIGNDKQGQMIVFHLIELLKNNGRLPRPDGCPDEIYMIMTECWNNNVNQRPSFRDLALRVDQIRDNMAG

Consider `CCn1c(C(=O)N(C2CC2)C2CC2)cc2c3c(ncn3C)c(Nc3cc(C)n(C4CCC4)n3)nc21` [Example 81, 4-(1-cyclobutyl-5-methyl-1H-pyrazol-3-ylamino)-N,N-dicyclopropyl-6-ethyl-1-methyl-1,6-dihydroimidazo[4,5-d]pyrrolo[2,3-b]pyridine-7-carboxamide], for which the IC50 was found to be 15.2 nM on JAK2 and 339 nM in the assay on SET-2 cells. Turning to `CCn1c(C(=O)N(C2CC2)C2CC2)cc2c3c(ncn3C)c(Nc3nc(C)c(C(=O)NCCOC)s3)nc21` [Example 53, 2-(7-(dicyclopropylcarbamoyl)-6-ethyl-1-methyl-1,6-dihydroimidazo[4,5-d]pyrrolo[2,3-b]pyridin-4-ylamino)-N-(2-methoxyethyl)-4-methylthiazole-5-carboxamide], the IC50 is 1.47 nM at JAK2 and 100 nM with SET-2 cells. On to `CCn1c(C(=O)N(C2CC2)C2CC2)cc2c3c(ncn3C)c(Nc3nc(C)c(C(=O)N4CCS(=O)(=O)CC4)s3)nc21` [Example 70], for which the values for the IC50 at JAK2 and with SET-2 cells were 0.733 nM and 330 nM, respectively. Regarding `CCn1c(C(=O)N(C2CC2)C2CC2)cc2c3c(ncn3C)c(Nc3nc4c(s3)CS(=O)(=O)CC4)nc21` [Example 33, 4-(5,5-dioxo-4,5,6,7-tetrahydro-5λ^6-thiopyrano[4,3-d]thiazol-2-ylamino)-6-ethyl-1-methyl-1,6-dihydro-1,3,5,6-tetraaza-as-indacene-7-carboxylic acid dicyclopropylamide], the IC50 on JAK2 was 0.637 nM; in the assay on SET-2 cells it was 10 nM.

As to `CCn1c(C(=O)N(C2CC2)C2CC2)cc2c3c(ncn3C)c(Nc3nc(C(F)(F)F)c(C)s3)nc21` [Example 29, N,N-dicyclopropyl-6-ethyl-1-methyl-4-(5-methyl-4-(trifluoromethyl)thiazol-2-ylamino)-1,6-dihydroimidazo[4,5-d]pyrrolo[2,3-b]pyridine-7-carboxamide], the values for the IC50 at JAK2 and in the assay with SET-2 cells were 10 nM and 10000 nM, respectively. `CCn1c(C(=O)N(C2CC2)C2CC2)cc2c3c(ncn3C)c(Nc3nc(C)c(C(=O)NCC#N)s3)nc21` [Example 61, 4-((5-((cyanomethyl)carbamoyl)-4-methyl-1,3-thiazol-2-yl)amino)-N,N-dicyclopropyl-6-ethyl-1-methyl-1,6-dihydroimidazo[4,5-d]pyrrolo[2,3-b]pyridine-7-carboxamide]: the IC50 on JAK2 was 0.751 nM. Regarding `CCn1c(C(=O)N(C2CC2)C2CC2)cc2c3c(ncn3C)c(Nc3nc(C)c(C(C)=O)s3)nc21` [Example 34, 4-(5-acetyl-4-methylthiazol-2-ylamino)-N,N-dicyclopropyl-6-ethyl-1-methyl-1,6-dihydroimidazo[4,5-d]pyrrolo[2,3-b]pyridine-7-carboxamide], the values for the IC50 at JAK2 and in the assay on SET-2 cells were 1.5 nM and 240 nM, respectively. Regarding `CCn1c(C(=O)N(C2CC2)C2CC2)cc2c3c(ncn3C)c(Nc3cc(C)n(C)n3)nc21` [Example 73, N,N-dicyclopropyl-4-(1,5-dimethyl-1H-pyrazol-3-ylamino)-6-ethyl-1-methyl-1,6-dihydroimidazo[4,5-d]pyrrolo[2,3-b]pyridine-7-carboxamide], the half-inhibitory concentration (IC50) on JAK2 worked out at 1 nM; with SET-2 cells, 60 nM. The matching figures for `CCn1c(C(=O)N(C2CC2)C2CC2)cc2c3c(ncn3C)c(Nc3cnn(C)c3)nc21` [Example 98, N,N-dicyclopropyl-6-ethyl-1-methyl-4-(1-methyl-1H-pyrazol-4-ylamino)-1,6-dihydroimidazo[4,5-d]pyrrolo[2,3-b]pyridine-7-carboxamide]: 0.695 nM and 7.37 nM. `CCn1c(C(=O)N(C2CC2)C2CC2)cc2c3c(ncn3C)c(Nc3nc4cc[nH]c(=O)c4s3)nc21` [Example 35, N,N-dicyclopropyl-6-ethyl-1-methyl-4-(4-oxo-4,5-dihydrothiazolo[5,4-c]pyridin-2-ylamino)-1,6-dihydroimidazo[4,5-d]pyrrolo[2,3-b]pyridine-7-carboxamide]: the concentration for half-maximal inhibition (IC50) on JAK2 was determined as 0.536 nM; in the assay with SET-2 cells, 2850 nM. Regarding `CCNC(=O)c1nc(Nc2nc3c(cc(C(=O)N(C4CC4)C4CC4)n3CC)c3c2ncn3C)sc1C` [Example 49, 2-(7-(dicyclopropylcarbamoyl)-6-ethyl-1-methyl-1,6-dihydroimidazo[4,5-d]pyrrolo[2,3-b]pyridine-4-ylamino)-N-ethyl-5-methylthiazole-4-carboxamide], the IC50 at JAK2 stood at 50 nM; in the assay with SET-2 cells it was 3930 nM. Turning to `CCn1c(C(=O)N(C2CC2)C2CC2)cc2c3c(ncn3C)c(Nc3nc(C)n(C)n3)nc21` [Example 125, N,N-dicyclopropyl-4-(1,5-dimethyl-1H-1,2,4-triazol-3-ylamino)-6-ethyl-1-methyl-1,6-dihydroimidazo[4,5-d]pyrrolo[2,3-b]pyridine-7-carboxamide], the figures for the IC50 on JAK2 and in the assay on SET-2 cells were 50 nM and 1270 nM, respectively. Consider `CCn1c(C(=O)N(C2CC2)C2CC2)cc2c3c(ncn3C)c(Nc3nc(C(=O)NC4CCS(=O)(=O)C4)cs3)nc21` (stereo not shown) [Example 15, N,N-dicyclopropyl-4-((4-((1,1-dioxidotetrahydro-3-thiophenyl)carbamoyl)-1,3-thiazol-2-yl)amino)-6-ethyl-1-methyl-1,6-dihydroimidazo[4,5-d]pyrrolo[2,3-b]pyridine-7-carboxamide], for which the IC50 on JAK2 was 1.52 nM; in the assay on SET-2 cells, 490 nM. On to `CCNC(=O)c1cc2c(nc(NC)c3ncn(C)c32)[nH]1` [Example No. A171, reference compound], for which the “activity against JAK2” value at JAK2 (result in words) is “weak activity”. As to `CCn1nc(Nc2nc3c(cc(C(=O)N(C4CC4)C4CC4)n3CC)c3c2ncn3C)cc1C(=O)O` [Example 101, 3-(7-(dicyclopropylcarbamoyl)-6-ethyl-1-methyl-1,6-dihydroimidazo[4,5-d]pyrrolo[2,3-b]pyridin-4-ylamino)-1-ethyl-1H-pyrazole-5-carboxylic acid], the IC50 amounted to 0.743 nM at JAK2 and 10000 nM with SET-2 cells. As for `CCn1c(C(=O)N(C2CC2)C2CC2)cc2c3c(ncn3C)c(Nc3nc(C)c(C(=O)N4CCC4)s3)nc21` [Example 55, 4-(5-(azetidine-1-carbonyl)-4-methylthiazol-2-ylamino)-N,N-dicyclopropyl-6-ethyl-1-methyl-1,6-dihydroimidazo[4,5-d]pyrrolo[2,3-b]pyridine-7-carboxamide], the IC50 on JAK2 was found to be 0.748 nM; in the assay with SET-2 cells, 4.3 nM. The matching figures for `CCn1c(C(=O)N(C2CC2)C2CC2)cc2c3c(ncn3C)c(Nc3nc(CF)cs3)nc21` [Example 3, N,N-dicyclopropyl-6-ethyl-4-(4-(fluoromethyl)thiazol-2-ylamino)-1-methyl-1,6-dihydroimidazo[4,5-d]pyrrolo[2,3-b]pyridine-7-carboxamide]: 1.5 nM and 10 nM. The matching figures for `CCn1c(C(=O)N(C2CC2)C2CC2)cc2c3c(ncn3C)c(Nc3ncc(C#N)s3)nc21` [Example 38, 4-(5-cyanothiazol-2-ylamino)-N,N-dicyclopropyl-6-ethyl-1-methyl-1,6-dihydroimidazo[4,5-d]pyrrolo[2,3-b]pyridine-7-carboxamide]: 40 nM and 60 nM. `CCn1c(C(=O)N(C2CC2)C2CC2)cc2c3c(ncn3C)c(Nc3nc(C(C)(C)C)cs3)nc21` [Example 4, 4-(4-tert-butylthiazol-2-ylamino)-N,N-dicyclopropyl-6-ethyl-1-methyl-1,6-dihydroimidazo[4,5-d]pyrrolo[2,3-b]pyridine-7-carboxamide]: the figures for the IC50 at JAK2 and with SET-2 cells were 30 nM and 2530 nM, respectively. As for `CCn1nc(Nc2nc3c(cc(C(=O)N(C4CC4)C4CC4)n3CC)c3c2ncn3C)cc1C(=O)NCCNC(C)=O` [Example 109, 4-((5-((2-acetamidoethyl)carbamoyl)-1-ethyl-1H-pyrazol-3-yl)amino)-N,N-dicyclopropyl-6-ethyl-1-methyl-1,6-dihydroimidazo[4,5-d]pyrrolo[2,3-b]pyridine-7-carboxamide], the IC50 on JAK2 is 1.52 nM; with SET-2 cells it was 4150 nM. On the same counts, the results for `CCn1c(C(=O)N(C2CC2)C2CC2)cc2c3c(ncn3C)c(Nc3cc(CN4CCOCC4)n(C)n3)nc21` [Example 116, N,N-dicyclopropyl-6-ethyl-1-methyl-4-(1-methyl-5-(morpholinomethyl)-1H-pyrazol-3-ylamino)-1,6-dihydroimidazo[4,5-d]pyrrolo[2,3-b]pyridine-7-carboxamide] are 1.49 nM and 170 nM.
